Where a SMILES comes first, the peptide text is derived from it. [ ]: non-standard residue; d: D form. The star is where a group is joined. ξ: configuration not given here. Oleoyl = CCCCCCCC/C=C\CCCCCCCC(=O)*; Lauroyl = CCCCCCCCCCCC(=O)*; ξS = NC(CO)C(=O)O
Experiments:
[1] = Foaming power study (foam developed by brush in rotating graduated container); type: physicochemical; settings: 5% aqueous solution (weight/volume), 5 ml with 6 mg natural feminine sebum; for Foam Height (cm) at the end of a time of 60 sec: 60 sec of stirring; for Foam Height (cm) at the end of a time of 120 sec: 120 sec of stirring; for Foam Height (cm) at the end of a time of 180 sec: 180 sec of stirring
Experimental: The test consists in developing the foam using a brush made of natural hog bristles (length=18 mm) displaced in a plexiglass graduated cylindrical container (inside diameter=35 mm). This container is driven in a uniform circular motion which is the reverse of that described by the brush. This permits a good distribution of the foam in the graduated container despite the small amounts developed. (brush speed =100 rpm, container speed =10 rpm). The procedure is carried out using 5 ml of each solution studied to which has been added 6 mg of natural feminine sebum. The foam heights are recorded after one, two and three minutes of stirring.

[2] = tested on: human stratum corneum previously delipidated; experiment: Hydrating effect on the skin: reduction of water loss of delipidated stratum corneum (evaporimeter); settings: 3% solution in 2:1 dichloromethane:methanol applied on delipidated human stratum corneum; measured 3 hours after treatment
Experimental: In this test, the hydrating effect is evaluated by measuring the reduction of water loss of human stratum corneum previously delipidated. The stratum corneum is delipidated for one hour with a 2:1 dichloromethane/methanol mixture.
This test is effected in accordance with a method analogous to that described by J. L. Leveque et coll., J. Soc. Cosmet. Chem., 30, 333-343 (1979).
The following procedures are carried out:
The water flow (g/m^2.H) traversing a sample of stratum corneum placed below a water reservoir is measured. Using an evaporimeter (Servomed, registered mark), the evaporation values before and after treatment are registered, and the eventual reduction of the insensible loss of water is thus determined.
The treatment consists in applying on the sample of stratum corneum […] of a 3% solution in a 2:1 dichloromethane: methanol mixture of the compound being studied. The measurements are carried out 3 hours after this treatment.
On the basis of this test the compound of Example 2 is compared with N-oleoyl-glycyl-glycine (compound B) and with the olvent (2:1 dichloromethane:methanol) alone.

CCCCCCCCCCCC(=O)NCC(=O)NC(CO)C(=O)[O-].[Na+] (centres unmarked) [Ex. 5, Sodium Salt of N-dodecanoyl-glycyl-(D,L) Serine] (Lauroyl-Gly-[ξS]-OH)
Foam Height (cm) at the end of a time of 60 sec [1]: 12.5 cm
Foam Height (cm) at the end of a time of 120 sec [1]: 21.25 cm
Foam Height (cm) at the end of a time of 180 sec [1]: 28.75 cm

CCCCCCCCCCCC(=O)NCC(=O)NCC(=O)[O-].[Na+] [compound A, sodium salt of N-dodecanoyl-glycyl-glycine] (Lauroyl-Gly-Gly-OH)
Foam Height (cm) at the end of a time of 60 sec [1]: 11.25 cm
Foam Height (cm) at the end of a time of 120 sec [1]: 13.75 cm
Foam Height (cm) at the end of a time of 180 sec [1]: 20 cm

CCCCCCCC/C=C\CCCCCCCC(=O)NCC(=O)NC(CO)C(=O)O (centres unmarked) [Example 2, N-oleoyl-glycyl-(D,L) Serine] (Oleoyl-Gly-[ξS]-OH)
Reduction of the insensible loss of water [2]: 32% ± 3

CCCCCCCC/C=C\CCCCCCCC(=O)NCC(=O)NCC(=O)O [compound B, N-oleoyl-glycyl-glycine] (Oleoyl-Gly-Gly-OH)
Reduction of the insensible loss of water [2]: 6% ± 3

From patent US5234909A, “Dipeptidic amides derived from glycyl-serine as surfactants or hydrating agents and cosmetic, pharmaceutical or alimentary compositions containing the same” (L'Oreal, priority 1991, dated 1993)
